Like-named read-outs stand apart in the source and are kept apart here.
Experiment: Repeated once-daily oral dosing with food (Days 1-7) in healthy subjects, PK and PD
Assay type: in vivo, human
Settings: for AUC(0-t) / Cmax / Vd/F / Tmax / AUC(0-inf) / half-life: both sexes, human, plasma, oral; for Cmax: read-out: Cmax, Mean (SD); for AUC(0-inf): read-out: AUCinf, Mean (SD)
Procedure: A randomized, double-blind, placebo-controlled, parallel-dose group in-patient study is conducted to investigate the pharmacodynamic (PD) effects of crystalline Form II of Compound (I) in healthy subjects.
The study is designed as a three-part, sequential study. The sequential nature of the study ensures that a range of doses are investigated first in a young, healthy population (Part 1) before proceeding to higher doses in the healthy population and the comparator populations (intermediate age and elderly) (Parts 2 and 3). For the purposes of this study, “young” refers to a subject who is 18 to 45 years of age, “intermediate age” refers to a subject who is 46 to 64 years of age, and “elderly” refers to a subject who is 65 years of age or older.
After a screening period of up to 21 days (Days −23 to −3), 16 healthy, young male and female subjects are randomly assigned to a dose group as shown in Table 9.
Each parallel dose group is balanced for gender (approximately equal number of males and females). The randomized subjects are domiciled from Day −1 through Day 8. On Day −1, the subjects receive placebo tablets in the fed state and undergo ambulatory blood pressure monitoring (ABPM) and safety assessments to establish time-matched baselines. On Days 1-7, the subjects receive the study drug in the fed state and undergo safety, pharmacokinetic (PK) and pharmacodynamics (PD) assessments. On Days 8-11, follow-up PK and safety assessments are performed.
Safety assessments include Clinician-Administered Dissociative States Scale (CADSS), Columbia-Suicide Severity Rating Scale (C-SSRS), concomitant medication, adverse event (AE) and vital sign assessments. In PK assessments, blood samples are taken and analyzed to determine PK parameters such as Cmax, Tmax, AUC0-24, and t1/2. PD assessments include ABPM, plasma brain-derived neurotrophic factor (BDNF) measurements, and Profile of Mood States (POMS) assessments.
After a screening period of up to 21 days (Days −23 to −3), 16 subjects (8 healthy, young male and female subjects, and 8 healthy, intermediate age male and female subjects) are randomly assigned to a dose group as shown in Table 10.
After a screening period of up to 21 days (Days −23 to −3), 16 subjects (8 healthy, young male and female subjects, and 8 healthy, elderly male and female subjects) are randomly assigned to a dose group as shown in Table 11.

[1] = 8 mg, young subjects, 8 mg, Day 7
[2] = 12 mg, intermediate age, 12 mg, Day 7

## Cc1ccc(COC(=O)N2CC[C@H](CNc3ncccn3)[C@H](F)C2)cc1 [Form II, 4-methylbenzyl (3S, 4R)-3-fluoro-4-[(pyrimidin-2-ylamino)methyl] piperidine-1-carboxylate]
16 and 20 mg
  average 7-day plasma BDNF values compared to placebo: trend for an increase
Day 7
  apparent oral clearance lower in female vs male subjects: approximately 15%
  average Cmax higher in intermediate age and elderly subgroups vs young: approximately 30%
  t½ higher in female vs male subjects: approximately 16%
Day 7, 2 to 24 hours postdose
  mean plasma concentrations higher in female vs male subjects: approximately 20%
Days 1 and 7, 8 to 20 mg
  Cmax and AUC vs dose: approximately dose-proportional
All doses compared to placebo, maximal by Day 4
  average 24 hour and daytime SBP and DBP: increased
8 mg, young subjects, 8 mg, Day 1, read-out: AUC0-24, Mean (SD)
  AUC(0-t): 1500 ng·h/mL
8 mg, young subjects, 8 mg, Day 1, read-out: AUClast, Mean (SD)
  AUC(0-t): 1490 ng·h/mL
8 mg, young subjects, 8 mg, Day 1
  Cmax: 179 ng/mL
8 mg, young subjects, 8 mg, Day 1, read-out: Vz/F, Mean (SD)
  Vd/F: 101 L
8 mg, young subjects, 8 mg, Day 1, read-out: tmax, Mean (SD)
  Tmax: 2.17 h
8 mg, young subjects, 8 mg, Day 1, read-out: tmax, Median
  Tmax: 2 h
8 mg, young subjects, 8 mg, Day 7, read-out: AUC0-24, Mean (SD)
  AUC(0-t): 2400 ng·h/mL
[1]
  AUC(0-inf): 4110 ng·h/mL
  Cmax: 224 ng/mL
8 mg, young subjects, 8 mg, Day 7, read-out: AUClast, Mean (SD)
  AUC(0-t): 3770 ng·h/mL
8 mg, young subjects, 8 mg, Day 7, read-out: t1/2, Mean (SD) (converted)
  half-life: 1030 min
8 mg, young subjects, 8 mg, Day 7, read-out: tmax, Mean (SD)
  Tmax: 2.75 h
8 mg, young subjects, 8 mg, Day 7, read-out: tmax, Median
  Tmax: 3 h
12 mg, Day 7, read-out: average t½, range across age groups
  half-life: 1200 to 1680 min
12 mg, elderly, 12 mg, Day 1, read-out: AUC0-24, Mean (SD)
  AUC(0-t): 2130 ng·h/mL
12 mg, elderly, 12 mg, Day 1, read-out: AUClast, Mean (SD)
  AUC(0-t): 2100 ng·h/mL
12 mg, elderly, 12 mg, Day 1
  Cmax: 229 ng/mL
12 mg, elderly, 12 mg, Day 1, read-out: Vz/F, Mean (SD)
  Vd/F: 164 L
12 mg, elderly, 12 mg, Day 1, read-out: tmax, Mean (SD)
  Tmax: 1.93 h
12 mg, elderly, 12 mg, Day 1, read-out: tmax, Median
  Tmax: 1.75 h
12 mg, elderly, 12 mg, Day 7, read-out: AUC0-24, Mean (SD)
  AUC(0-t): 4520 ng·h/mL
12 mg, elderly, 12 mg, Day 7
  AUC(0-inf): 10300 ng·h/mL
  Cmax: 349 ng/mL
12 mg, elderly, 12 mg, Day 7, read-out: AUClast, Mean (SD)
  AUC(0-t): 9140 ng·h/mL
12 mg, elderly, 12 mg, Day 7, read-out: Vss/F, Mean (SD)
  Vd/F: 111 L
12 mg, elderly, 12 mg, Day 7, read-out: t1/2, Mean (SD) (converted)
  half-life: 1700 min
12 mg, elderly, 12 mg, Day 7, read-out: tmax, Mean (SD)
  Tmax: 2.26 h
12 mg, elderly, 12 mg, Day 7, read-out: tmax, Median
  Tmax: 2 h
12 mg, intermediate age, 12 mg, Day 1, read-out: AUC0-24, Mean (SD)
  AUC(0-t): 2000 ng·h/mL
12 mg, intermediate age, 12 mg, Day 1, read-out: AUClast, Mean (SD)
  AUC(0-t): 1980 ng·h/mL
12 mg, intermediate age, 12 mg, Day 1
  Cmax: 257 ng/mL
12 mg, intermediate age, 12 mg, Day 1, read-out: Vz/F, Mean (SD)
  Vd/F: 201 L
12 mg, intermediate age, 12 mg, Day 1, read-out: tmax, Mean (SD)
  Tmax: 2.5 h
12 mg, intermediate age, 12 mg, Day 1, read-out: tmax, Median
  Tmax: 2.5 h
12 mg, intermediate age, 12 mg, Day 7, read-out: AUC0-24, Mean (SD)
  AUC(0-t): 3840 ng·h/mL
[2]
  AUC(0-inf): 8100 ng·h/mL
  Cmax: 360 ng/mL
12 mg, intermediate age, 12 mg, Day 7, read-out: AUClast, Mean (SD)
  AUC(0-t): 7470 ng·h/mL
12 mg, intermediate age, 12 mg, Day 7, read-out: Vss/F, Mean (SD)
  Vd/F: 121 L
12 mg, intermediate age, 12 mg, Day 7, read-out: t1/2, Mean (SD) (converted)
  half-life: 1570 min
12 mg, intermediate age, 12 mg, Day 7, read-out: tmax, Mean (SD)
  Tmax: 1.83 h
12 mg, intermediate age, 12 mg, Day 7, read-out: tmax, Median
  Tmax: 1.5 h

— patent publication US12410153B2, “Compounds, compositions and methods” (Avalo Therapeutics, Inc., priority 2014, dated 2025)
